Results from PMC5218480 (PLoS ONE, 2017).

Tested on: MV-4-11 cells
Assay: Gene expression microarray analysis (Affymetrix PrimeView) and GSEA
Assay type: cell-based, human
Set-up: RFU PODN (11730768_x_at) / Fold change /veh PODN (11730768_x_at) / RFU LINC00158 (11744669_a_at) / Fold change /veh LINC00158 (11744669_a_at) / RFU DUSP10 (11751237_a_at) / Fold change /veh DUSP10 (11751237_a_at) / RFU ID3 (11757404_x_at) / Fold change /veh ID3 (11757404_x_at) / RFU PLEKHG5 (11737974_s_at) / Fold change /veh PLEKHG5 (11737974_s_at) / RFU LRRC4B (11730491_at) / Fold change /veh LRRC4B (11730491_at) / RFU GIMAP4 (11747438_a_at) / Fold change /veh GIMAP4 (11747438_a_at) / RFU KRT8 (11758183_x_at) / Fold change /veh KRT8 (11758183_x_at) / RFU CNN1 (11734310_a_at) / Fold change /veh CNN1 (11734310_a_at) / RFU VPS37D (11726825_at) / Fold change /veh VPS37D (11726825_at) / RFU C10orf10 (11716522_x_at) / Fold change /veh C10orf10 (11716522_x_at) / RFU KIR2DL2 /// KIR2DL4 /// KIR2DL5A /// KIR2DL5B /// KIR2DS1 /// KIR2DS2 /// KIR2DS3 /// KIR2DS4 /// KIR3DL3 /// KIR3DL3 /// KIR3DS1 (11738374_at) / Fold change /veh KIR2DL2 /// KIR2DL4 /// KIR2DL5A /// KIR2DL5B /// KIR2DS1 /// KIR2DS2 /// KIR2DS3 /// KIR2DS4 /// KIR3DL3 /// KIR3DL3 /// KIR3DS1 (11738374_at) / RFU C1QL1 (11718748_at) / Fold change /veh C1QL1 (11718748_at) / RFU TMPRSS4 (11747572_a_at) / Fold change /veh TMPRSS4 (11747572_a_at) / RFU HAMP (11756126_x_at) / Fold change /veh HAMP (11756126_x_at) / RFU RNFT2 (11725882_a_at) / Fold change /veh RNFT2 (11725882_a_at) / RFU NR4A2 (11747474_a_at) / Fold change /veh NR4A2 (11747474_a_at) / RFU ABCC12 (11746883_a_at) / Fold change /veh ABCC12 (11746883_a_at) / RFU TMEM136 (11760407_x_at) / Fold change /veh TMEM136 (11760407_x_at) / RFU CLDN22 /// WWC2 (11732394_at) / Fold change /veh CLDN22 /// WWC2 (11732394_at) / RFU HLA-DPB1 (11760878_x_at) / Fold change /veh HLA-DPB1 (11760878_x_at) / RFU SPINT1 (11716480_a_at) / Fold change /veh SPINT1 (11716480_a_at) / RFU GAP43 (11754022_s_at) / Fold change /veh GAP43 (11754022_s_at) / RFU A4GNT (11735810_at) / Fold change /veh A4GNT (11735810_at) / RFU PRB3 (11715151_x_at) / Fold change /veh PRB3 (11715151_x_at) / RFU TUBB4B (11761932_at) / Fold change /veh TUBB4B (11761932_at) / RFU CAPN14 (11732068_a_at) / Fold change /veh CAPN14 (11732068_a_at) / RFU TMCC2 (11721928_a_at) / Fold change /veh TMCC2 (11721928_a_at) / RFU IRGQ (11745062_a_at) / Fold change /veh IRGQ (11745062_a_at) / RFU FAM174B (11720279_a_at) / Fold change /veh FAM174B (11720279_a_at) / RFU TMPRSS4 (11748680_a_at) / Fold change /veh TMPRSS4 (11748680_a_at) / RFU FAM212B (11763350_a_at) / Fold change /veh FAM212B (11763350_a_at) / RFU PLEKHG5 (11743358_a_at) / Fold change /veh PLEKHG5 (11743358_a_at) / RFU ZSCAN30 (11745921_a_at) / Fold change /veh ZSCAN30 (11745921_a_at) / RFU CMKLR1 (11741424_a_at) / Fold change /veh CMKLR1 (11741424_a_at) / RFU LOC101060620 /// MAPK8IP1 (11723275_at) / Fold change /veh LOC101060620 /// MAPK8IP1 (11723275_at) / RFU SPTSSB (11747773_x_at) / Fold change /veh SPTSSB (11747773_x_at) / RFU PRSS12 (11739890_at) / Fold change /veh PRSS12 (11739890_at) / RFU BIN1 (11741810_x_at) / Fold change /veh BIN1 (11741810_x_at) / RFU WNT11 (11732464_a_at) / Fold change /veh WNT11 (11732464_a_at) / RFU C10orf10 (11716521_a_at) / Fold change /veh C10orf10 (11716521_a_at) / RFU C5orf56 (11738089_at) / Fold change /veh C5orf56 (11738089_at) / RFU CYB561 (11721691_x_at) / Fold change /veh CYB561 (11721691_x_at) / RFU ANKRD19P (11752326_a_at) / Fold change /veh ANKRD19P (11752326_a_at) / RFU OR2T12 /// OR2T33 /// OR2T8 (11738714_s_at) / Fold change /veh OR2T12 /// OR2T33 /// OR2T8 (11738714_s_at) / RFU VCAN (11748164_a_at) / Fold change /veh VCAN (11748164_a_at) / RFU JSRP1 (11732532_at) / Fold change /veh JSRP1 (11732532_at) / RFU KRTAP10-11 (11738290_x_at) / Fold change /veh KRTAP10-11 (11738290_x_at) / RFU MYO3A (11730013_a_at) / Fold change /veh MYO3A (11730013_a_at) / RFU EBF3 (11725865_a_at) / Fold change /veh EBF3 (11725865_a_at) / RFU CAMK2N1 (11719241_x_at) / Fold change /veh CAMK2N1 (11719241_x_at) / RFU C5orf56 (11738088_a_at) / Fold change /veh C5orf56 (11738088_a_at) / RFU OLFML3 (11715873_a_at) / Fold change /veh OLFML3 (11715873_a_at) / RFU LOC100653217 /// NTM (11731650_a_at) / Fold change /veh LOC100653217 /// NTM (11731650_a_at) / RFU MAPK11 (11762145_a_at) / Fold change /veh MAPK11 (11762145_a_at) / RFU FIZ1 (11724087_x_at) / Fold change /veh FIZ1 (11724087_x_at) / RFU OASL (11726364_x_at) / Fold change /veh OASL (11726364_x_at) / RFU SOX15 (11748057_x_at) / Fold change /veh SOX15 (11748057_x_at) / RFU CD79A (11719716_a_at) / Fold change /veh CD79A (11719716_a_at) / RFU HIST1H1D (11736915_at) / Fold change /veh HIST1H1D (11736915_at) / RFU CASKIN2 (11723855_a_at) / Fold change /veh CASKIN2 (11723855_a_at) / RFU LOC730098 (11760151_x_at) / Fold change /veh LOC730098 (11760151_x_at) / RFU OR4N2 (11742367_at) / Fold change /veh OR4N2 (11742367_at) / RFU PRRT2 (11749266_a_at) / Fold change /veh PRRT2 (11749266_a_at) / RFU SNX32 (11753110_a_at) / Fold change /veh SNX32 (11753110_a_at) / RFU CDHR5 (11726645_a_at) / Fold change /veh CDHR5 (11726645_a_at) / RFU RCAN1 (11760418_a_at) / Fold change /veh RCAN1 (11760418_a_at) / RFU FAM167A (11723789_a_at) / Fold change /veh FAM167A (11723789_a_at) / RFU FAM26E (11764081_at) / Fold change /veh FAM26E (11764081_at) / RFU ISYNA1 (11749810_s_at) / Fold change /veh ISYNA1 (11749810_s_at) / RFU ACY1 (11761880_at) / Fold change /veh ACY1 (11761880_at) / RFU 11764098_at / Fold change /veh 11764098_at / RFU SAMD14 (11745864_x_at) / Fold change /veh SAMD14 (11745864_x_at) / RFU NPB (11741838_a_at) / Fold change /veh NPB (11741838_a_at) / RFU TMPRSS6 (11731388_a_at) / Fold change /veh TMPRSS6 (11731388_a_at) / RFU KRTAP10-2 (11738614_at) / Fold change /veh KRTAP10-2 (11738614_at) / RFU ARHGAP8 /// PRR5-ARHGAP8 (11727945_x_at) / Fold change /veh ARHGAP8 /// PRR5-ARHGAP8 (11727945_x_at) / RFU KRTAP5-7 /// NADSYN1 (11734609_at) / Fold change /veh KRTAP5-7 /// NADSYN1 (11734609_at) / RFU RASL12 (11751679_a_at) / Fold change /veh RASL12 (11751679_a_at) / RFU CDKN2B (11736163_a_at) / Fold change /veh CDKN2B (11736163_a_at) / RFU PRF1 (11729649_at) / Fold change /veh PRF1 (11729649_at) / RFU, ZNF638 /// ZNF638-IT1 / Fold change vs veh, ZNF638 /// ZNF638-IT1 / RFU, PANK3 / Fold change vs veh, PANK3 / RFU, SH3YL1 / Fold change vs veh, SH3YL1 / RFU, ZEB2 / Fold change vs veh, ZEB2 / RFU, NRIP1 / Fold change vs veh, NRIP1 / RFU, PTTG1IP / Fold change vs veh, PTTG1IP / RFU, CAPN2 / Fold change vs veh, CAPN2 / RFU, MED14 / Fold change vs veh, MED14 / RFU, SNORA58 / Fold change vs veh, SNORA58 / RFU, C1orf63 / Fold change vs veh, C1orf63 / RFU, LRRFIP1 / Fold change vs veh, LRRFIP1 / RFU, NDUFAF7 / Fold change vs veh, NDUFAF7 / RFU, SLC12A2 / Fold change vs veh, SLC12A2 / RFU, IBTK / Fold change vs veh, IBTK / RFU, ESF1 / Fold change vs veh, ESF1 / Fold change vs veh, TMEM50B / RFU, TAOK1 / Fold change vs veh, TAOK1 / RFU, ACBD3 / Fold change vs veh, ACBD3 / RFU, TMA16 / Fold change vs veh, TMA16 / RFU, RWDD3 / Fold change vs veh, RWDD3 / RFU, BCAT1 / Fold change vs veh, BCAT1 / RFU, EDEM3 / Fold change vs veh, EDEM3 / RFU, TMEM33 / Fold change vs veh, TMEM33 / RFU, WDR75 / Fold change vs veh, WDR75 / RFU, AHCTF1 / Fold change vs veh, AHCTF1 / RFU, TFRC / Fold change vs veh, TFRC / RFU, ZDHHC17 / Fold change vs veh, ZDHHC17 / RFU, NOM1 / Fold change vs veh, NOM1 / RFU, ARL8B / Fold change vs veh, ARL8B / RFU, ZBTB11 / Fold change vs veh, ZBTB11 / RFU, TAMM41 / Fold change vs veh, TAMM41 / RFU, KIAA1704 /// LOC100996395 / Fold change vs veh, KIAA1704 /// LOC100996395 / RFU, ING1 / Fold change vs veh, ING1 / RFU, TRMT61B / Fold change vs veh, TRMT61B / RFU, FUBP3 / Fold change vs veh, FUBP3 / RFU, TP53 / Fold change vs veh, TP53 / RFU, TNKS2 / Fold change vs veh, TNKS2 / RFU, ZFP14 / Fold change vs veh, ZFP14 / RFU, ACTR2 / Fold change vs veh, ACTR2 / RFU, PPP3R1 / Fold change vs veh, PPP3R1 / RFU, PIK3R1 / Fold change vs veh, PIK3R1 / RFU, HNRNPA1 / Fold change vs veh, HNRNPA1 / RFU, RNF170 / Fold change vs veh, RNF170 / RFU, ZNF28 / Fold change vs veh, ZNF28 / RFU, RNGTT / Fold change vs veh, RNGTT / RFU, OGT / Fold change vs veh, OGT / RFU, BRD1 / Fold change vs veh, BRD1 / RFU, MARS / Fold change vs veh, MARS / RFU, ZNF655 / Fold change vs veh, ZNF655 / RFU, FAHD1 / Fold change vs veh, FAHD1 / RFU, BDP1 / Fold change vs veh, BDP1 / RFU, LRRCC1 / Fold change vs veh, LRRCC1 / RFU, ARID1A / Fold change vs veh, ARID1A / RFU, ZNF146 / Fold change vs veh, ZNF146 / RFU, ZNF330 / Fold change vs veh, ZNF330 / RFU, GPN3 / Fold change vs veh, GPN3 / RFU, C9orf123 / Fold change vs veh, C9orf123 / RFU, N4BP2L2 / Fold change vs veh, N4BP2L2 / RFU, ARFIP1 / Fold change vs veh, ARFIP1 / RFU, FAM179B / Fold change vs veh, FAM179B / RFU, BCL10 / Fold change vs veh, BCL10 / RFU, UHRF1BP1L / Fold change vs veh, UHRF1BP1L / RFU, BET1 / Fold change vs veh, BET1 / RFU, CNOT2 / Fold change vs veh, CNOT2 / RFU, ZNF268 / Fold change vs veh, ZNF268 / Fold change vs veh, ZNF507 / RFU, DGCR2 / Fold change vs veh, DGCR2 / RFU, WDSUB1 / Fold change vs veh, WDSUB1 / Fold change vs veh, HSP90B1 /// MIR3652 / RFU, ADSS / Fold change vs veh, ADSS / RFU, GK / Fold change vs veh, GK / RFU, ZNF148 / Fold change vs veh, ZNF148 / RFU, TAF9 / Fold change vs veh, TAF9 / RFU, SLC1A5 / Fold change vs veh, SLC1A5 / RFU, SLMO2 / Fold change vs veh, SLMO2 / RFU, ABCC4 / Fold change vs veh, ABCC4 / RFU, LOC101060439 /// RAP1B / Fold change vs veh, LOC101060439 /// RAP1B / RFU, RFX7 / Fold change vs veh, RFX7 / RFU, GTPBP10 / Fold change vs veh, GTPBP10 / RFU, CNEP1R1 / Fold change vs veh, CNEP1R1 / RFU, BIVM-ERCC5 /// ERCC5 / Fold change vs veh, BIVM-ERCC5 /// ERCC5 / RFU, ILF3 / Fold change vs veh, ILF3 / RFU 11762660_at / Fold change /veh 11762660_at / RFU VCAN (11757783_s_at) / Fold change /veh VCAN (11757783_s_at) / RFU DDX43 (11728927_at) / Fold change /veh DDX43 (11728927_at) / RFU KRT8 (11758188_x_at) / Fold change /veh KRT8 (11758188_x_at) / RFU NKD1 (11759106_at) / Fold change /veh NKD1 (11759106_at) / RFU SRD5A1 (11742802_a_at) / Fold change /veh SRD5A1 (11742802_a_at) / RFU TPSAB1 /// TPSB2 (11721975_s_at) / Fold change /veh TPSAB1 /// TPSB2 (11721975_s_at) / RFU GSTM3 (11746129_a_at) / Fold change /veh GSTM3 (11746129_a_at) / RFU IL23R (11737362_x_at) / Fold change /veh IL23R (11737362_x_at) / RFU TMEM51 (11727254_a_at) / Fold change /veh TMEM51 (11727254_a_at) / RFU PIWIL2 (11732686_x_at) / Fold change /veh PIWIL2 (11732686_x_at) / RFU ORM1 (11744905_x_at) / Fold change /veh ORM1 (11744905_x_at) / RFU CCDC152 (11743942_at) / Fold change /veh CCDC152 (11743942_at) / RFU ECM1 (11717891_a_at) / Fold change /veh ECM1 (11717891_a_at) / RFU IL23R (11748794_a_at) / Fold change /veh IL23R (11748794_a_at) / RFU TNFAIP8L3 (11732012_x_at) / Fold change /veh TNFAIP8L3 (11732012_x_at) / RFU MBOAT4 (11741988_at) / Fold change /veh MBOAT4 (11741988_at) / RFU 11764193_at / Fold change /veh 11764193_at / RFU TMEM53 (11763286_at) / Fold change /veh TMEM53 (11763286_at) / RFU MAGEB2 (11727129_at) / Fold change /veh MAGEB2 (11727129_at) / RFU TMEM200A (11744735_a_at) / Fold change /veh TMEM200A (11744735_a_at) / RFU CCDC152 (11751479_a_at) / Fold change /veh CCDC152 (11751479_a_at) / RFU FAM211A (11726209_a_at) / Fold change /veh FAM211A (11726209_a_at) / RFU RGS16 (11746705_a_at) / Fold change /veh RGS16 (11746705_a_at) / RFU VCAN (11755009_s_at) / Fold change /veh VCAN (11755009_s_at) / RFU RHOB (11743442_s_at) / Fold change /veh RHOB (11743442_s_at) / RFU RGS16 (11720943_a_at) / Fold change /veh RGS16 (11720943_a_at) / RFU RGS16 (11720944_at) / Fold change /veh RGS16 (11720944_at) / RFU, VPS4B / Fold change vs veh, VPS4B / RFU, CREB1 / Fold change vs veh, CREB1 / RFU, DNAJC13 / Fold change vs veh, DNAJC13 / RFU, GNAQ / Fold change vs veh, GNAQ / RFU, CDK5R1 / Fold change vs veh, CDK5R1 / RFU, ZRANB3 / Fold change vs veh, ZRANB3 / RFU, CUL4A / Fold change vs veh, CUL4A / RFU, CCNY / Fold change vs veh, CCNY / RFU, UFL1 / Fold change vs veh, UFL1 / RFU, COG3 / Fold change vs veh, COG3 / RFU, DIAPH2 / Fold change vs veh, DIAPH2 / RFU, SKA2 / Fold change vs veh, SKA2 / RFU, AFF3 / Fold change vs veh, AFF3 / RFU, LMF1 / Fold change vs veh, LMF1 / RFU, IPO11 / Fold change vs veh, IPO11 / RFU, DFFB / Fold change vs veh, DFFB / RFU, FOXP1 / Fold change vs veh, FOXP1 / RFU, CARD8 / Fold change vs veh, CARD8 / RFU, STRN3 / Fold change vs veh, STRN3 / RFU, ADK / Fold change vs veh, ADK / RFU, RASSF2 / Fold change vs veh, RASSF2 / RFU, WIPF1 / Fold change vs veh, WIPF1 / RFU, LARP1B / Fold change vs veh, LARP1B / RFU, RASA1 / Fold change vs veh, RASA1 / RFU, RB1 / Fold change vs veh, RB1 / RFU, PPFIA1 / Fold change vs veh, PPFIA1 / RFU, MAT2A / Fold change vs veh, MAT2A / RFU, CCT5 / Fold change vs veh, CCT5 / RFU, WDR92 / Fold change vs veh, WDR92 / RFU, CUX1 / Fold change vs veh, CUX1 / RFU, TTC7A / Fold change vs veh, TTC7A / RFU, TMEM135 / Fold change vs veh, TMEM135 / RFU, DEPTOR / Fold change vs veh, DEPTOR / RFU, CPM / Fold change vs veh, CPM / RFU, DNAJB6 / Fold change vs veh, DNAJB6 / RFU, CACNA2D3 / Fold change vs veh, CACNA2D3 / RFU, DTX4 / Fold change vs veh, DTX4 / RFU, TFCP2 / Fold change vs veh, TFCP2 / RFU, GMCL1 /// GMCL1P1 / Fold change vs veh, GMCL1 /// GMCL1P1 / RFU, AEBP2 / Fold change vs veh, AEBP2 / RFU, SNHG1 /// SNORD22 /// SNORD25 /// SNORD26 /// SNORD27 /// SNORD28 /// SNORD29 /// SNORD31 / Fold change vs veh, SNHG1 /// SNORD22 /// SNORD25 /// SNORD26 /// SNORD27 /// SNORD28 /// SNORD29 /// SNORD31 / Fold change (Aza/veh), C12orf56 (ProbeSet 11735607_a_at) / Fold change (ACY-1035/veh), C12orf56 (ProbeSet 11735607_a_at) / Fold change (Aza/veh), FGFR1OP (ProbeSet 11751329_s_at) / Fold change (ACY-1035/veh), FGFR1OP (ProbeSet 11751329_s_at) / Fold change (Aza/veh), VPS36 (ProbeSet 11739960_a_at) / Fold change (ACY-1035/veh), VPS36 (ProbeSet 11739960_a_at) / RFU SYPL1 (11715823_x_at) / Fold change /veh SYPL1 (11715823_x_at) / RFU IGFBP7 (11715501_s_at) / Fold change /veh IGFBP7 (11715501_s_at) / RFU REEP3 (11722064_at) / Fold change /veh REEP3 (11722064_at) / RFU IGLL1 (11728026_x_at) / Fold change /veh IGLL1 (11728026_x_at): dose or concentration left out as unconfirmed
Conditions: MV-4-11 cells, 48 hours

Question: Which “RFU CCDC152 (11751479_a_at)” value does the source give for `Nc1ncn([C@@H]2O[C@H](CO)[C@@H](O)[C@H]2O)c(=O)n1` [azacitidine] here?
Answer: The value was 11.18 RFU.
